What was measured:
FAPα/A549 cells = experiment: Uptake of 211At-labeled FAPI derivatives into A549 and FAPα/A549 cells; assay type: cell-based, human; settings: for uptake level in dependence on FAPα expression: A549 (low FAPα) vs FAPα/A549 (high FAPα), 30 min; for competitive inhibition by addition of the corresponding unlabeled form: A549 / FAPα/A549 cells
Excerpt: (§1) Human non-small cell lung cancer cell lines (A549), human triple-negative (estrogen and progesterone receptors which are hormone receptors, as well as HER2 protein, are all absent) breast cancer cell lines (MDA-MB-231), and A549 cells and MDA-MB-231 cells, each transfected with the human fibroblast activation protein (FAPα) gene (FAPα/A549, FAPα/MDA-MB-231) were used in the experiments as cancer cells with low FAPα expression and cancer cells with high FAPα expression (mimic after high-order histogenesis), respectively. For each type, the cells were seeded in a 24-well plate at 2×10^4 cells per well and cultured for 2 days. An appropriate amount of two ^211At-labeled FAPI derivatives (PIP(1,H) […], PIP-amide(1,H) (Example 14)) were added to each type of the above cells, respectively, and cultured for 30 min. The supernatant was removed by aspiration, and the cells were washed with PBS(−), and then 0.1N sodium hydroxide solution was added to lyse the cells, and the intracellular radioactivity was measured by a gamma counter. The radioactivity count was corrected per unit protein amount (counts/μg protein). […] Considering that the uptake level into human embryonic kidney-derived cells (HEK293) was about 20 counts/μg protein at most, based on the results of PIP(1,F) and the like in Experimental Example 1, it can be said that cancer cells take up more FAPI derivatives than non-cancer cells.

FAPα/MDA-MB-231 cells = experiment: Uptake of 211At-labeled FAPI derivatives into MDA-MB-231 and FAPα/MDA-MB-231 cells; assay type: cell-based, human; settings: for uptake level in dependence on FAPα expression: MDA-MB-231 (low FAPα) vs FAPα/MDA-MB-231 (high FAPα), 30 min; for competitive inhibition by addition of the corresponding unlabeled form: MDA-MB-231 / FAPα/MDA-MB-231 cells
Excerpt: as §1

[1] = tested on: Human pancreatic cancer cells (PANC-1); experiment: Inhibitory effect on tumor growth in human pancreatic cancer-transplanted mice; assay type: in vivo, nude mice; settings: PANC-1 subcutaneous, intravenous 1 MBq per mouse, N=4, three weeks, vs saline control
Experimental: (§2) Human pancreatic cancer cells (PANC-1) were subcutaneously administered at 1×10^7 cells to nude mice (male, 6-weeks old) to generate pancreatic cancer-transplanted mice. The mice were intravenously injected with ^211At(C1)-Pip-6Qui-FAPI(H) (PIP(1,H), Example 2) or 211At(C1)-PEG2-6Qui-FAPI(H) (PEG(1,H), Example 6) at 1 MBq per mouse (N=4). Physiological saline was administered to the control group (Control (Saline)) (N=4).

[2] = Changes in body weight of human pancreatic cancer-transplanted mice; assay type: in vivo, nude mice; settings: intravenous 1 MBq per mouse, N=4, three weeks, vs saline control
Experimental: as §2

[3] = Stability of the radiolabeled product; assay type: physicochemical; settings: alkylene chain length 0, after purification
[4] = tested on: FAPα/293 cells (293 cells transfected with the human fibroblast activation protein (FAPα) gene); experiment: Uptake of 211At-labeled FAPI derivatives into FAPα/293 cells; assay type: cell-based; settings: cultured 30 min, gamma counter, rank order of the three highest of eight derivatives
Experimental: Human embryonic kidney 293 cells (HEK293), and 293 cells transfected with the human fibroblast activation protein (FAPα) gene (FAPα/293) were used in the experiment as FAPα-negative and FAPα-positive cells, respectively. For each type, the cells were seeded in a 24-well plate at 2×10^4 cells per well and cultured for 2 days. An appropriate amount of eight ^211At-labeled FAPI derivatives (Gly(1,F) (Example 8), PEG(1,F) (Example 5), PIP(1,F) (Example 1), PIP(1,H)-8Qui (Example 3), Ac-PIP (Example 13), PEG4(1,H) (Example 7), GlcN-PEG(1,F) (Example 11), PEG(1,H) (Example 6)) were added to each type of the above cells, respectively, and cultured for 30 min. The supernatant was removed by aspiration, and then 0.1N sodium hydroxide solution was added to lyse the cells, and the intracellular radioactivity was measured by a gamma counter. The radioactivity count was corrected per unit protein amount (counts/μg protein). The three compounds with the highest uptake levels into FAPα-positive cells were PIP(1,F)>PIP(1,H)-8Qui>PEG(1,H), in order of […] level.

| SMILES | uptake level in dependence on FAPα expression (FAPα/A549 cells) | competitive inhibition by addition of the corresponding unlabeled form (FAPα/A549 cells) | uptake level in dependence on FAPα expression (FAPα/MDA-MB-231 cells) | competitive inhibition by addition of the corresponding unlabeled form (FAPα/MDA-MB-231 cells) | inhibitory effect on tumor growth (tumor size) [1] | changes in body weight [2] | stability of the product [3] | uptake levels into FAPα-positive cells (intracellular radioactivity) [4] | other results |
| --- | --- | --- | --- | --- | --- | --- | --- | --- | --- |
| N#C[C@@H]1CCCN1C(=O)CNC(=O)c1ccnc2ccc(OCCCN3CCN(C(=O)Cc4ccc([211At])cc4)CC3)cc12 [Example 2, ^211At(C1)-Pip-6Qui-FAPI(H)] | uptake level increased as FAPα expression increased | could be suppressed to a low level | uptake level increased as FAPα expression increased | could be suppressed to a low level | superior inhibitory effects on tumor growth compared to the control group | comparable to that of the control group |  |  | uptake level (intracellular radioactivity), comparison between derivatives (FAPα/A549 cells; A549 and FAPα/A549 cells, cultured 30 min): slightly higher than that of PIP-amide(1,H); uptake level (intracellular radioactivity), comparison between derivatives (FAPα/MDA-MB-231 cells; MDA-MB-231 and FAPα/MDA-MB-231 cells, cultured 30 min): slightly higher than that of PIP-amide(1,H) |
| N#C[C@@H]1CCCN1C(=O)CNC(=O)c1ccnc2ccc(OCCCN3CCN(C(=O)CCCO[C@@H]4OC(CO)[C@@H](O)C(O)[C@@H]4NC(=O)c4ccc([211At])cc4)CC3)cc12 (stereo partly drawn) [Example 10, ^211At(C0)-GlcN-Pip-6Qui-FAPI(H)] |  |  |  |  |  |  | low |  |  |
| N#C[C@@H]1CCCN1C(=O)CNC(=O)c1ccnc2c(OCCCN3CCN(C(=O)Cc4ccc([211At])cc4)CC3)cccc12 [Example 3, ^211At(C1)-Pip-8Qui-FAPI(H)] |  |  |  |  |  |  |  | PIP(1,F)>PIP(1,H)-8Qui>PEG(1,H) |  |
| N#C[C@@H]1CCCN1C(=O)CNC(=O)c1ccnc2ccc(OCCOCCNC(=O)Cc3ccc([211At])cc3)cc12 [Example 6, ^211At(C1)-PEG2-6Qui-FAPI(H)] |  |  |  |  | superior inhibitory effects on tumor growth compared to the control group | comparable to that of the control group |  | PIP(1,F)>PIP(1,H)-8Qui>PEG(1,H) |  |
| N#C[C@@H]1CC(F)(F)CN1C(=O)CNC(=O)c1ccnc2ccc(OCCCN3CCN(C(=O)CCCO[C@@H]4OC(CO)[C@@H](O)C(O)[C@@H]4NC(=O)c4ccc([211At])cc4)CC3)cc12 (stereo partly drawn) [Example 9, ^211At(CO)-GlcN-Pip-6Qui-FAPI(F)] |  |  |  |  |  |  | low |  |  |
| N#C[C@@H]1CCCN1C(=O)CNC(=O)c1ccnc2ccc(OCCC(=O)N3CCN(C(=O)Cc4ccc([211At])cc4)CC3)cc12 [Example 14, ^211At(C1)-Pip-amido-6Qui-FAPI(H)] | uptake level increased as FAPα expression increased | could be suppressed to a low level | uptake level increased as FAPα expression increased | could be suppressed to a low level |  |  |  |  |  |

Source: patent publication US20260199533A1, “RA[…]-AFFINITY COMPOUND AND USE THEREOF” (Osaka University, priority 2022, published 2026)
